Assay results published in ChEMBL document CHEMBL1201862, “PubChem BioAssay data set” (2004).
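96-well plates; 48 h exposure; 5 concentrations. Endpoints by linear interpolation between flanking doses. Not reached: highest tested concentration assigned. GI50 is the concentration that inhibits growth by half.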 The source made the active and inactive calls. No stated cut-off is given here; in the data, active = GI50 up to about 1.1 µM and inactive = higher.

What was measured:
Assay in all cases: growth of human tumour cells (NCI), 48 h
[1] = tested on: SK-MEL-28
[2] = tested on: 786-0
[3] = tested on: EKVX
[4] = tested on: SK-MEL-5
[5] = tested on: HOP-62
[6] = tested on: COLO 205
[7] = tested on: PC-3
[8] = tested on: MDA-MB-231
[9] = tested on: HT-29
[10] = tested on: SK-MEL-2
[11] = tested on: NCI-H522
[12] = tested on: NCI-H226
[13] = tested on: A549
[14] = tested on: T47D
[15] = tested on: U-251
[16] = tested on: BT-549
[17] = tested on: A498
[18] = tested on: MCF7
[19] = tested on: UACC-257
[20] = tested on: HCT-116
[21] = tested on: SW-620
[22] = tested on: HCT-15
[23] = tested on: HCC 2998
[24] = tested on: SK-OV-3
[25] = tested on: MOLT-4
[26] = tested on: OVCAR-8
[27] = tested on: TK-10
[28] = tested on: Malme-3M
[29] = tested on: UACC-62
[30] = tested on: OVCAR-4
[31] = tested on: RPMI-8226
[32] = tested on: IGROV-1
[33] = tested on: OVCAR-3
[34] = tested on: CCRF-CEM
[35] = tested on: UO-31
[36] = tested on: DU-145
[37] = tested on: K562
[38] = tested on: ACHN
[39] = tested on: Hs-578T
[40] = tested on: CAKI-1
[41] = tested on: KM12
[42] = tested on: M14
[43] = tested on: OVCAR-5
[44] = tested on: SF-295
[45] = tested on: SNB-19
[46] = tested on: SN12C
[47] = tested on: NCI-H23
[48] = tested on: NCI/ADR-RES
[49] = tested on: RXF 393
[50] = tested on: MDA-MB-435
[51] = tested on: SF-268
[52] = tested on: MDA-N
[53] = tested on: SF-539
[54] = tested on: HOP-92
[55] = tested on: LOX IMVI
[56] = tested on: HL-60
[57] = tested on: NCI-H460
[58] = tested on: SNB-75

CC1(C)OC(=O)C2(O1)C(=O)C1CCCCC12 (centres undefined) was tested, and the GI50 [1] was > 100 µM (inactive), the GI50 [2] was 35.6 µM (inactive) and the GI50 [3] was 21 µM (inactive). For the same compound, the GI50 [4] was > 100 µM (inactive), the GI50 [5] was 62.8 µM (inactive) and the GI50 [6] was 20.1 µM (inactive). The GI50 [7] was > 100 µM (inactive), the GI50 [8] was 3.84 µM (inactive) and the GI50 [9] was > 100 µM (inactive). The GI50 [10] was > 100 µM (inactive), the GI50 [11] was 12 µM (inactive) and the GI50 [12] was 45.4 µM (inactive). The GI50 [13] was 26.9 µM (inactive), the GI50 [14] was > 100 µM (inactive) and the GI50 [15] was 97.1 µM (inactive). For the same compound, the GI50 [16] was 23.9 µM (inactive), the GI50 [17] was 4.78 µM (inactive) and the GI50 [18] was 5.75 µM (inactive). For the same compound, the GI50 [19] was 40 µM (inactive), the GI50 [20] was > 100 µM (inactive) and the GI50 [21] was > 100 µM (inactive). For the same compound, the GI50 [22] was 86.9 µM, the GI50 [23] was > 100 µM (inactive) and the GI50 [24] was 8.51 µM (inactive). For the same compound, the GI50 [25] was > 100 µM (inactive), the GI50 [26] was > 100 µM (inactive) and the GI50 [27] was 70.5 µM (inactive). The GI50 [28] was 67.9 µM (inactive), the GI50 [29] was 82.4 µM (inactive) and the GI50 [30] was 9.73 µM (inactive). The GI50 [31] was > 100 µM (inactive), the GI50 [32] was > 100 µM (inactive) and the GI50 [33] was > 100 µM (inactive). For the same compound, the GI50 [34] was 8.97 µM (inactive), the GI50 [35] was 82.2 µM (inactive) and the GI50 [36] was > 100 µM (inactive). The GI50 [37] was > 100 µM (inactive), the GI50 [38] was > 100 µM (inactive) and the GI50 [39] was 32.4 µM (inactive). The GI50 [40] was 10.2 µM (inactive), the GI50 [41] was > 100 µM (inactive) and the GI50 [42] was > 100 µM (inactive). The GI50 [43] was 44.6 µM (inactive), the GI50 [44] was > 100 µM (inactive) and the GI50 [45] was 8.39 µM (inactive). The GI50 [46] was 3.63 µM (inactive), the GI50 [47] was > 100 µM (inactive) and the GI50 [48] was > 100 µM (inactive). The GI50 [49] was 4.89 µM (inactive), the GI50 [50] was > 100 µM (inactive) and the GI50 [51] was > 100 µM (inactive). The GI50 [52] was 30.9 µM (inactive).

In the case of C=CCCCCCCCCCOC1C=CC(O)C(CO)O1 (centres undefined), the GI50 [1] is reported as 41.6 µM (inactive), the GI50 [2] is reported as 44.5 µM (inactive) and the GI50 [3] is reported as 39.2 µM (inactive). The GI50 [4] was 20.3 µM (inactive), the GI50 [5] was 50.5 µM (inactive) and the GI50 [6] was 37.1 µM (inactive). For the same compound, the GI50 [7] was 26.5 µM (inactive), the GI50 [8] was 75.5 µM (inactive) and the GI50 [53] was 95.7 µM (inactive). The GI50 [9] was 22.6 µM (inactive), the GI50 [10] was 35.7 µM (inactive) and the GI50 [11] was 33.2 µM (inactive). The GI50 [12] was > 100 µM (inactive), the GI50 [54] was 33.5 µM (inactive) and the GI50 [13] was 42.4 µM (inactive). The GI50 [14] was 52.2 µM (inactive), the GI50 [15] was 28.6 µM (inactive) and the GI50 [16] was 48.4 µM (inactive). The GI50 [17] was 99.5 µM (inactive), the GI50 [18] was 41.4 µM (inactive) and the GI50 [19] was 23.7 µM (inactive). For the same compound, the GI50 [20] was 46.3 µM (inactive), the GI50 [21] was 43.5 µM (inactive) and the GI50 [22] was 35.1 µM. The GI50 [23] was 41.1 µM (inactive), the GI50 [24] was 83.6 µM (inactive) and the GI50 [25] was 25.5 µM (inactive). The GI50 [26] was 17.5 µM (inactive), the GI50 [27] was 36.7 µM (inactive) and the GI50 [28] was 28.1 µM (inactive). For the same compound, the GI50 [29] was 27.8 µM (inactive), the GI50 [30] was 46.6 µM (inactive) and the GI50 [31] was 14.9 µM (inactive). For the same compound, the GI50 [55] was 31.6 µM (inactive), the GI50 [32] was 16.6 µM (inactive) and the GI50 [33] was 38 µM (inactive). For the same compound, the GI50 [35] was 35.8 µM (inactive), the GI50 [36] was 95.3 µM (inactive) and the GI50 [37] was 20.6 µM (inactive). For the same compound, the GI50 [38] was 46.5 µM (inactive), the GI50 [39] was 46 µM (inactive) and the GI50 [40] was 56 µM (inactive). The GI50 [41] was 27.2 µM (inactive), the GI50 [56] was 21.9 µM (inactive) and the GI50 [42] was 18.6 µM (inactive). For the same compound, the GI50 [43] was 68.4 µM (inactive), the GI50 [44] was 66.2 µM (inactive) and the GI50 [45] was 54.8 µM (inactive). For the same compound, the GI50 [46] was 49.5 µM (inactive), the GI50 [47] was 28.2 µM (inactive) and the GI50 [48] was 43.6 µM (inactive). The GI50 [49] was 95.9 µM (inactive), the GI50 [50] was 35.5 µM (inactive) and the GI50 [51] was 54.8 µM (inactive). The GI50 [52] was 33.3 µM (inactive), the GI50 [57] was 25.2 µM (inactive) and the GI50 [58] was 51.2 µM (inactive).
